According to paper PMC10997755, “Discovery of a small-molecule inhibitor that traps Polθ on DNA and synergizes with PARP inhibitors” (Nature Communications, 2024):
Like-named read-outs stand apart in the source and are kept apart here.

Tests used:
Polθ-pol = molecular target: T1, Polθ-pol (Homo sapiens, UniProt O75417); experiment: Cy5 fluorescence Polθ-pol DNA synthesis (strand displacement) IC50 assay; type: biochemical; conditions: Polθ-pol DNA synthesis, Cy5 fluorescence
T1 construct: purified recombinant human Polθ-pol (comprising amino acid residues 1792–2590); made in house
T1 sequence (O75417 1792-2590): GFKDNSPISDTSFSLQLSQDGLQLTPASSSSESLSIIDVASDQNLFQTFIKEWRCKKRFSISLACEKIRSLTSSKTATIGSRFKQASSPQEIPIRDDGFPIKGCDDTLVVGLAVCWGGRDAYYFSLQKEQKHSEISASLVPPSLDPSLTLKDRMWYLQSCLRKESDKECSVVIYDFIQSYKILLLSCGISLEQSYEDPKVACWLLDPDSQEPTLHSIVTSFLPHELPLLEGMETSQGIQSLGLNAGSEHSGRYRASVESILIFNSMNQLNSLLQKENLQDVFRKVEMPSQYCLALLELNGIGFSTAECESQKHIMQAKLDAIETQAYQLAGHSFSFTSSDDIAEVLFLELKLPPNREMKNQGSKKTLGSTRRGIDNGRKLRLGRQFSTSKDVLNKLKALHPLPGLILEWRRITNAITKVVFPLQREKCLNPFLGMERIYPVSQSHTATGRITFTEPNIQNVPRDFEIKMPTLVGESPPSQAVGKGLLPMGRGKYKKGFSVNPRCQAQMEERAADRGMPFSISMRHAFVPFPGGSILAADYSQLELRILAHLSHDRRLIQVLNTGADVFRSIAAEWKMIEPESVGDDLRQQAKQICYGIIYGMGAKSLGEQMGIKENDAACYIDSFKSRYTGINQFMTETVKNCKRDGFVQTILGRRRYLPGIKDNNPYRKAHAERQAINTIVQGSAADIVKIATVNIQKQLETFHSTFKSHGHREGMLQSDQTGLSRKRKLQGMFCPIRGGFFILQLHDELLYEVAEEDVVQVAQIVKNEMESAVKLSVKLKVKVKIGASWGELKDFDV
Description: The following Cy5 fluorescence assay was used to measure the ability of compounds to inhibit Polθ-pol in vitro. The fluorescent based assay was performed as follows: 60 nM of the pre-annealed primer-template containing a 5’ Cy5 fluorophore conjugated template strand (RP486-Cy5), a downstream complementary oligo conjugated with a 3’ Iowa BlackReg Dark quencher (RP343BHQRQ) and a primer strand (RP469D) was mixed with 50 uM 2'-deoxyribonucleoside triphosphates (dNTPs), 0.1 mg/mL Bovine serum albumin (BSA), 0.01% NP-40, 10% glycerol, 1 mM dithiothreitol (DTT), 10 mM MgCl2, 25 mM TrisHCl pH 7.8 in the presence of 2.5% DMSO with or without various concentrations (7-point dilution series) of Polθ-pol small-molecule inhibitors at 37 °C in a volume of 40 μL. The reactions were initiated by the addition of 5 nM of purified recombinant human Polθ-pol (comprising amino acid residues 1792–2590). The reactions were terminated by the addition of 20 mM EDTA after 18 min, and the Cy5 fluorescence intensity was measured using a CLARIOstar (BMG Labtech) plate reader. Reactions were performed in triplicate and the % inhibition at each concentration of the respective compound of Formula I was based on the mean.

DLD1 BRCA2 -/- cells = experiment: Clonogenic assay; type: cell-based; conditions: for Average (colonies): DLD1 BRCA2 -/-; for IC50: DLD1 cells, label beside BRCA2-null curve, read-out: IC50 clonogenic survival; for potency in BRCA2-null cells compared with RTx-161: clonogenic survival
Description: (§1) Cells were plated on six or twelve or twenty-four well plates. In six well plate, 1000 cells/ well of BRCA2 -/-, BRCA1 -/-, PALB2 mut and 500 cells/ well of wildtype pair was plated; In twelve well plate, 600 cells/ well of BRCA2 -/-, BRCA1 -/-, PALB2 mut and 400 cells/ well of wildtype pair was plated; In twenty-four well plate, 500 cells/ well of BRCA2 -/-, BRCA1 -/-, PALB2 mut and 300 cells/ well of wildtype pair was plated. For MEFs, 300 cells per well in six-well plate were seeded. The medium was replaced every 2 days until the colonies were ready for staining in 10–12 days. For staining: Medium was removed from plates, and cells were rinsed with PBS. Fixation was carried out with—Water: Ethanol: Acetic acid (5:4:1) for 30 min followed by staining of colonies with 0.5% crystal violet in Water: Ethanol (3:2) for 2 h at room temperature. The plates were rinsed with water and left for drying overnight at room temperature. Colonies were then counted and IC50 was calculated using results from 3 or more independent experiments. Response curves are shown as mean colony formation +/- S.E.M.
Data are expressed as mean ± SEM from at least 3 independent experiments with triplicates for each condition unless stated otherwise. When conducting comparison between two groups, two-tailed unpaired t-test was used. Significance was assumed at p < 0.05. Asterisks in the figures indicate significance, ^∗p < 0.05, ^∗∗p < 0.01, ^∗∗∗p < 0.001. Combenefit® software version 2.021 was used to perform synergy analyses for drug combinations between RTx-161 and PARPi. GraphPad Prism 9 software was used to calculate IC50.

DLD1 Parental cells = experiment: Clonogenic assay; type: cell-based; conditions: DLD1 Parental
Description: as §1

SMILES: Cc1cccc(N(C)C(=O)[C@@H]2[C@H](O)CCN2c2nc(C)cc(C(F)(F)F)c2C#N)c1 [ART558, reference compound]
- IC50 (Polθ-pol): 11.4 nM
- Average (colonies) (DLD1 BRCA2 -/- cells; 0.1875 uM, block 1 of sheet): 21.5
- Average (colonies) (DLD1 BRCA2 -/- cells; 0.1875 uM, block 2 of sheet): 41.5
- Average (colonies) (DLD1 BRCA2 -/- cells; 0.1875 uM, block 3 of sheet): 18
- Average (colonies) (DLD1 BRCA2 -/- cells; 0.375 uM, block 1 of sheet): 24.5
- Average (colonies) (DLD1 BRCA2 -/- cells; 0.375 uM, block 2 of sheet): 37.5
- Average (colonies) (DLD1 BRCA2 -/- cells; 0.375 uM, block 3 of sheet): 18.5
- Average (colonies) (DLD1 BRCA2 -/- cells; 0.75 uM, block 1 of sheet): 10.5
- Average (colonies) (DLD1 BRCA2 -/- cells; 0.75 uM, block 2 of sheet): 31
- Average (colonies) (DLD1 BRCA2 -/- cells; 0.75 uM, block 3 of sheet): 18.5
- Average (colonies) (DLD1 BRCA2 -/- cells; 1.5 uM, block 1 of sheet): 15.5
- Average (colonies) (DLD1 BRCA2 -/- cells; 1.5 uM, block 2 of sheet): 30.5
- Average (colonies) (DLD1 BRCA2 -/- cells; 1.5 uM, block 3 of sheet): 20.5
- Average (colonies) (DLD1 BRCA2 -/- cells; 3 uM, block 1 of sheet): 14
- Average (colonies) (DLD1 BRCA2 -/- cells; 3 uM, block 2 of sheet): 22.5
- Average (colonies) (DLD1 BRCA2 -/- cells; 3 uM, block 3 of sheet): 15
- Average (colonies) (DLD1 BRCA2 -/- cells; 6 uM, block 1 of sheet): 6.5
- Average (colonies) (DLD1 BRCA2 -/- cells; 6 uM, block 2 of sheet): 28.5
- Average (colonies) (DLD1 BRCA2 -/- cells; 6 uM, block 3 of sheet): 8
- Average (colonies) (DLD1 BRCA2 -/- cells; 12 uM, block 2 of sheet): 11.5
- Average (colonies) (DLD1 BRCA2 -/- cells; 12 uM, block 3 of sheet): 6
- IC50 (DLD1 BRCA2 -/- cells; Homo sapiens, DLD-1): ~2500 nM
- potency in BRCA2-null cells compared with RTx-161 (DLD1 BRCA2 -/- cells): slightly reduced potency
- Average (colonies) (DLD1 Parental cells; 0.1875 uM, block 1 of sheet): 47.5
- Average (colonies) (DLD1 Parental cells; 0.1875 uM, block 2 of sheet): 42
- Average (colonies) (DLD1 Parental cells; 0.1875 uM, block 3 of sheet): 77
- Average (colonies) (DLD1 Parental cells; 0.375 uM, block 1 of sheet): 51
- Average (colonies) (DLD1 Parental cells; 0.375 uM, block 2 of sheet): 61
- Average (colonies) (DLD1 Parental cells; 0.375 uM, block 3 of sheet): 80
- Average (colonies) (DLD1 Parental cells; 0.75 uM, block 1 of sheet): 39.5
- Average (colonies) (DLD1 Parental cells; 0.75 uM, block 2 of sheet): 41.5
- Average (colonies) (DLD1 Parental cells; 0.75 uM, block 3 of sheet): 76.5
- Average (colonies) (DLD1 Parental cells; 1.5 uM, block 1 of sheet): 42.5
- Average (colonies) (DLD1 Parental cells; 1.5 uM, block 2 of sheet): 44.5
- Average (colonies) (DLD1 Parental cells; 1.5 uM, block 3 of sheet): 77.5
- Average (colonies) (DLD1 Parental cells; 3 uM, block 1 of sheet): 58.5
- Average (colonies) (DLD1 Parental cells; 3 uM, block 2 of sheet): 36.5
- Average (colonies) (DLD1 Parental cells; 3 uM, block 3 of sheet): 78.5
- Average (colonies) (DLD1 Parental cells; 6 uM, block 1 of sheet): 42.5
- Average (colonies) (DLD1 Parental cells; 6 uM, block 2 of sheet): 59
- Average (colonies) (DLD1 Parental cells; 6 uM, block 3 of sheet): 76.5
- Average (colonies) (DLD1 Parental cells; 12 uM, block 2 of sheet): 57.5
- Average (colonies) (DLD1 Parental cells; 12 uM, block 3 of sheet): 79

SMILES: Nc1ccc(C#CCN(C(=O)Cc2ncc(C(F)(F)F)cc2C(F)(F)F)c2ccc(F)cc2)nn1 [RP6685, reference compound]
- IC50 (Polθ-pol): 6.9 nM
- Average (colonies) (DLD1 BRCA2 -/- cells; 0.375 uM, block 1 of sheet): 44.6667
- Average (colonies) (DLD1 BRCA2 -/- cells; 0.375 uM, block 2 of sheet): 14.6667
- Average (colonies) (DLD1 BRCA2 -/- cells; 0.375 uM, block 3 of sheet): 52
- Average (colonies) (DLD1 BRCA2 -/- cells; 0.375 uM, block 4 of sheet): 52
- Average (colonies) (DLD1 BRCA2 -/- cells; 0.75 uM, block 1 of sheet): 42.3333
- Average (colonies) (DLD1 BRCA2 -/- cells; 0.75 uM, block 2 of sheet): 10.3333
- Average (colonies) (DLD1 BRCA2 -/- cells; 0.75 uM, block 3 of sheet): 48.3333
- Average (colonies) (DLD1 BRCA2 -/- cells; 0.75 uM, block 4 of sheet): 49.6667
- Average (colonies) (DLD1 BRCA2 -/- cells; 1.5 uM, block 1 of sheet): 34
- Average (colonies) (DLD1 BRCA2 -/- cells; 1.5 uM, block 2 of sheet): 7.333
- Average (colonies) (DLD1 BRCA2 -/- cells; 1.5 uM, block 3 of sheet): 43.6667
- Average (colonies) (DLD1 BRCA2 -/- cells; 1.5 uM, block 4 of sheet): 41.6667
- Average (colonies) (DLD1 BRCA2 -/- cells; 3 uM, block 1 of sheet): 34.3333
- Average (colonies) (DLD1 BRCA2 -/- cells; 3 uM, block 2 of sheet): 4
- Average (colonies) (DLD1 BRCA2 -/- cells; 3 uM, block 3 of sheet): 33.6667
- Average (colonies) (DLD1 BRCA2 -/- cells; 3 uM, block 4 of sheet): 36.3333
- Average (colonies) (DLD1 BRCA2 -/- cells; 6 uM, block 1 of sheet): 30
- Average (colonies) (DLD1 BRCA2 -/- cells; 6 uM, block 2 of sheet): 4
- Average (colonies) (DLD1 BRCA2 -/- cells; 6 uM, block 3 of sheet): 31
- Average (colonies) (DLD1 BRCA2 -/- cells; 6 uM, block 4 of sheet): 28
- Average (colonies) (DLD1 BRCA2 -/- cells; 12 uM, block 1 of sheet): 25
- Average (colonies) (DLD1 BRCA2 -/- cells; 12 uM, block 2 of sheet): 2
- Average (colonies) (DLD1 BRCA2 -/- cells; 12 uM, block 3 of sheet): 21.3333
- Average (colonies) (DLD1 BRCA2 -/- cells; 12 uM, block 4 of sheet): 9.333
- IC50 (DLD1 BRCA2 -/- cells): ~4500 nM
- potency in BRCA2-null cells compared with RTx-161 (DLD1 BRCA2 -/- cells): slightly reduced potency
- Average (colonies) (DLD1 Parental cells; 0.375 uM, block 1 of sheet): 72.6667
- Average (colonies) (DLD1 Parental cells; 0.375 uM, block 2 of sheet): 75
- Average (colonies) (DLD1 Parental cells; 0.375 uM, block 3 of sheet): 87
- Average (colonies) (DLD1 Parental cells; 0.375 uM, block 4 of sheet): 63.6667
- Average (colonies) (DLD1 Parental cells; 0.75 uM, block 1 of sheet): 55.3333
- Average (colonies) (DLD1 Parental cells; 0.75 uM, block 2 of sheet): 76
- Average (colonies) (DLD1 Parental cells; 0.75 uM, block 3 of sheet): 85.6667
- Average (colonies) (DLD1 Parental cells; 0.75 uM, block 4 of sheet): 65.6667
- Average (colonies) (DLD1 Parental cells; 1.5 uM, block 1 of sheet): 59.3333
- Average (colonies) (DLD1 Parental cells; 1.5 uM, block 2 of sheet): 75
- Average (colonies) (DLD1 Parental cells; 1.5 uM, block 3 of sheet): 80
- Average (colonies) (DLD1 Parental cells; 1.5 uM, block 4 of sheet): 63.3333
- Average (colonies) (DLD1 Parental cells; 3 uM, block 1 of sheet): 73
- Average (colonies) (DLD1 Parental cells; 3 uM, block 2 of sheet): 75.6667
- Average (colonies) (DLD1 Parental cells; 3 uM, block 3 of sheet): 85.6667
- Average (colonies) (DLD1 Parental cells; 3 uM, block 4 of sheet): 65.6667
- Average (colonies) (DLD1 Parental cells; 6 uM, block 1 of sheet): 74
- Average (colonies) (DLD1 Parental cells; 6 uM, block 2 of sheet): 74.3333
- Average (colonies) (DLD1 Parental cells; 6 uM, block 3 of sheet): 84
- Average (colonies) (DLD1 Parental cells; 6 uM, block 4 of sheet): 64
- Average (colonies) (DLD1 Parental cells; 12 uM, block 1 of sheet): 60.6667
- Average (colonies) (DLD1 Parental cells; 12 uM, block 2 of sheet): 75
- Average (colonies) (DLD1 Parental cells; 12 uM, block 3 of sheet): 81
- Average (colonies) (DLD1 Parental cells; 12 uM, block 4 of sheet): 64.3333
